From BindingDB's records for doi:10.1016/j.bmcl.2007.05.099 (Southern Research Institute, 2007)

Assay: Inhibition of Mycobacterium smegmatis arabinosyl transferase assessed as [14C]arabinofuranose incorporation

Row | SMILES | IC50 [mM]
1 | O[C@H]1[C@H](O)[C@@H](CN(CC2CCCCC2)CC2CCCCC2)O[C@@H]1CC[C@H]1O[C@H](CN(CC2CCCCC2)CC2CCCCC2)[C@@H](O)[C@@H]1O [(2R,3S,4S,5R)-2-((bis(cyclohexylmethyl)amino)methyl)-5-(2-((2R,3S,4S,5R)-5-((bis(cyclohexylmethyl)amino)methyl)-3,4-dihydroxy-tetrahydrofuran-2-yl)ethyl)-tetrahydrofuran-3,4-diol] | 3.44
2 | O[C@H]1[C@H](O)[C@@H](CN(CC2CCCCC2)CC2CCCCC2)O[C@@H]1/C=C/[C@H]1O[C@H](CN(CC2CCCCC2)CC2CCCCC2)[C@@H](O)[C@@H]1O [(2R,3S,4S,5R)-2-((bis(cyclohexylmethyl)amino)methyl)-5-(2-((2R,3S,4S,5R)-5-((bis(cyclohexylmethyl)amino)methyl)-3,4-dihydroxy-tetrahydrofuran-2-yl)vinyl)-tetrahydrofuran-3,4-diol] | 4.15
3 | O[C@@H]1[C@@H](OC[C@H]2O[C@H](CN(CC3CCCCC3)CC3CCCCC3)[C@@H](O)[C@@H]2O)O[C@H](CN(CC2CCCCC2)CC2CCCCC2)[C@H]1O [(2R,3S,4S,5R)-2-((bis(cyclohexylmethyl)amino)methyl)-5-(((2S,3S,4S,5R)-5-((bis(cyclohexylmethyl)amino)methyl)-3,4-dihydroxy-tetrahydrofuran-2-yloxy)methyl)-tetrahydrofuran-3,4-diol] | 2.8
